These results are taken from patent publication US20190112357A1, “PREVENTION OF PROTEIN DISULFIDE BOND REDUCTION” (MedImmune, LLC, priority 2016, published 2019).

In one assay the target is T1, GR/GSSG (Homo sapiens, UniProt P00390).
T1 construct: purchased Abcam
T1 sequence (P00390 44-522): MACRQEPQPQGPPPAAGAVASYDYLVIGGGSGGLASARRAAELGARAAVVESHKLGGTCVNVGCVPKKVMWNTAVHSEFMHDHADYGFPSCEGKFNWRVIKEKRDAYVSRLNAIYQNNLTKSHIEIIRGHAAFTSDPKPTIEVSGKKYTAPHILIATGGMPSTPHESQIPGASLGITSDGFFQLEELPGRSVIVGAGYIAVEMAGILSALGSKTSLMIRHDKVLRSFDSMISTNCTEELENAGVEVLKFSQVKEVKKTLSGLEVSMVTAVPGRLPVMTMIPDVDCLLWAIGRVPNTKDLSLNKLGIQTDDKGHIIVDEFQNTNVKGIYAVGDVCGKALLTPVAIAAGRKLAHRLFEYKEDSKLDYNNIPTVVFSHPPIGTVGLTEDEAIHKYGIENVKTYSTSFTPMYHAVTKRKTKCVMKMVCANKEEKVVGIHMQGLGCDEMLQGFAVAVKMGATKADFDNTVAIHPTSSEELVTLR
As to the kind of experiment: DTNB reductase activity assay, recombinant GR/GSSG. Type of assay: biochemical. Conditions: ATG concentrations lower than 5 μM. Here is the method:
(§1) Briefly, culture samples were thawed on ice. […] The samples were then allowed to incubate 5 minutes.
(§2) Activity of the reductases was calculated as follows. […] The activity was then calculated by the following equation: […]

The subject of assay [1] is TrxR1 purified from a day 14 culture of cell line B. As to the kind of experiment: DTNB reductase activity of 2'5'-ADP column fractions from cell line B, TrxR1. The class given is biochemical, Chinese Hamster. To be noted: 0.5 μM ATG, fractions B1-C2, depending on the fraction. Here is the method: Reductases were purified from cell samples to verify the specificity of reductase inhibitors. A day 14 culture of mAb B (IgG antibody produced by CHO cell line B CHO-K1SV) was pelleted by centrifugation, washed once with PBS and re-suspended in 50 mM tris buffer, pH 7.5. The solution was homogenized and filtered at 0.2 μm prior to loading onto a column of 2′5′-ADP Sepharose 4B resin. The reductases were eluted using a linearly increasing gradient of 0 to 0.3 mM NADP^+ in the same tris buffer (Yadav, et al., Parasitol. Int., 62:193-198, 2013). The reductase activity of the collected fractions was determined using the assay described in Example 3. Additionally, western blot analysis was used to detect TrxR1 and GR in the collected fractions.
The reductase-specific inhibitors were evaluated above using purified recombinant mammalian enzymes from rat and human. […] The added activity from the two systems was approximately equal to the total activity detected in the absence of an inhibitor for each fraction. […] That is, if the reductase inhibitors were non-specifically inhibiting both enzymatic systems, the added reductase activity would have been […] than the reductase activity detected without any added inhibitor. […] The fractions with reductase activity were pooled and further evaluated at the inhibitor concentrations assayed in the antibody reduction assay.

Assay [2] deals with TrxR1 purified from CHO cell cultures. As to the kind of experiment: mAb B reduction by pooled CHO fractions with NADPH and Trx1. Type of assay: biochemical, Chinese Hamster. Conditions: 3 μM Cu^2+ or 100 μM ATG, overnight room temperature. Here is the method: Purified mAb B was spiked into several solutions containing different combinations of the pooled fractions (PF), recombinant Trx1, GSSG, NADPH, ATG, and Cu^2+. The solutions were incubated at room temperature overnight and the amount of intact antibody remaining was determined by capillary electrophoresis according to the protocol described above. In the first set of samples, purified mAb B was spiked into the pooled fractions with, and without, NADPH.
The third set of solutions contained the pooled enzymes, NADPH, Trx1, and either no inhibitor, 3 μM Cu^2+, or 100 μM ATG. […] In the final sample as a control, mAb B was spiked into a solution containing NADPH, Trx1, and GSSG.

For a further assay, the system named is thioredoxin system. As to the kind of experiment: Reductase activity assay, day 14 culture samples, thioredoxin system. To be noted: day 14, 0.5 μM ATG. The class given is biochemical, Chinese Hamster. Here is the method: The total reductase activity was determined in the absence of any inhibitor. […] Thus, the difference in activity between a sample with ATG, and a sample without any inhibitor, indicates the amount of reductase activity contributed the thioredoxin system. […] Thus, the difference in reductase activity between a sample with 2-AAPA, and a sample without any inhibitor, indicates the amount of reductase activity contributed by the glutathione system. Although ATG and 2-AAPA are provided as exemplary specific inhibitors, other specific inhibitors discussed above can be employed in this assay instead of ATG and 2-AAPA.
as §1, §2
The reductase activities of the thioredoxin and glutathione systems were evaluated in day 14 culture samples of the same CHO cell lines A, B, C, and D, using the previously evaluated specific inhibitors 2-AAPA and ATG at 100 μM and 0.5 μM respectively. Data in FIG. 6A were normalized to viable cell density. Cell lines A, B, and C were described in Example 6, above. Cell line D is the cell line CHO CAT-S, and is stably transfected to produce an IgG1 mAb (mAb D).

Each structure is given as a SMILES string.

Regarding `OC[C@H]1O[C@H]([S-])[C@H](O)[C@@H](O)[C@@H]1O.[Au+]` [ATG, aurothioglucose], the “reductase activity of solutions containing GR/GSSG” value at GR/GSSG is reported as “unaffected”. The “share of reductase activity from TrxR1, determined with the inhibitor” value in assay [1] is on record as 60-75%. In addition, in assay [2], the “antibody reduction in pooled enzymes, NADPH, Trx1” value is recorded as “completely prevented reduction”. In addition, the “share of total reductase activity from the thioredoxin system” value turned out to be 35% in the assay with thioredoxin system (cell line A), 60% in the assay on thioredoxin system (cell line B), 87% with thioredoxin system (cell line C) and 60% in the assay with thioredoxin system (cell line D).
